Measured values from patent US5073562A, “Alkoxy-substituted dihydrobenzopyran-2-carboxylic acids and derivatives thereof” (G. D. Searle & Co., priority 1990, dated 1991).

How the values were obtained:
LTB4 Receptor = molecular target: T1, LTB4 Receptor (Homo sapiens, UniProt Q15722); test: LTB4 Receptor Binding Assay ((3H) LTB4, neutrophils); details: potency relative to the compound of Example 1(b), defined as 1.0, 0.6×10^-9 M (3H) LTB4, 0° C., 45 minutes
T1 construct: Neutrophils were purified from venous blood of normal human donors; endogenous in cells; host or cells: human peripheral blood neutrophils (purity >95%)
Experimental: The incubation was carried out at 0° C. for 45 minutes and terminated by adding 5 ml of ice-cold HBSS followed by rapid filtration of the incubation mixture under vacuum through GF/C glass fiber filters. The filters were further washed with 10 ml HBSS and radioactivity was determined. […] All data refer to specific binding. […] Pat. No. 4,889,871.

[1] = system: Human neutrophils (LTB4 chemotaxis); test: Modified Boyden Chamber Chemotaxis, LTB4; assay type: cell-based; parameters: key to Chemotaxis LTB4, inactive at the dose tested: IA: Inactive at the dose tested; details: for Relative Potency, Chemotaxis LTB4: potency relative to the compound of Example 1(b), defined as 1.0, 3×10^-8 M LTB4, 40-90 minute, 37° C.
Experimental: (§1) Human neutrophils were isolated from citrated peripheral blood using standard techniques of dextran sedimentation, followed by centrifugation on Histopaque® sterile solution (Sigma) or Ficoll-paque® (Pharmacia) and hypotonic lysis of erythrocytes. A final cell suspension of 3.4×10^6 neutrophils/ml of HEPES-buffered Hanks' balanced salt solution (HBSS, pH 7.3) was added to the upper well (0.8 ml) of a modified Boyden chamber (blind well). […] The number of neutrophils migrating into the lower chamber in the absence of chemoattractant was subtracted from the number of cells migrating in the presence of a chemoattractant. Inhibition of chemotaxis by test compounds was expressed as percent inhibition relative to uninhibited control. […] Pat. No. 4,889,871.

[2] = system: Human neutrophils (fMLP chemotaxis); test: Modified Boyden Chamber Chemotaxis, fMLP; assay type: cell-based; details: for Relative Potency, Chemotaxis fMLP: potency relative to the compound of Example 1(b), defined as 1.0
Experimental: as §1

T1 sequence (Q15722 whole entry): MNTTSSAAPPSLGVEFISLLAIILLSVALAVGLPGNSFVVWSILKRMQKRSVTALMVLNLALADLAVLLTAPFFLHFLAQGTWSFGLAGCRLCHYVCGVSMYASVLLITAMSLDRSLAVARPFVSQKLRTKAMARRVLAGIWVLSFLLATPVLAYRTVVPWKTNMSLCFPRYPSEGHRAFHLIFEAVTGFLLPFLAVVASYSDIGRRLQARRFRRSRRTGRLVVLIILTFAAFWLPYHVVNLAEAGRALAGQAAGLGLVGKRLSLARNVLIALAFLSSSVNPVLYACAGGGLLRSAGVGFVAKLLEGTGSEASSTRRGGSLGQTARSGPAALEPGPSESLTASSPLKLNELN

Row | Relative Potency, LTB4 Receptor Binding (LTB4 Receptor) | IC50 ([1]; Homo sapiens, Neutrophil, value in parentheses, 3×10^-8 M LTB4) | IC50 ([2]; Homo sapiens, Neutrophil, value in parentheses) | Structure (SMILES) | Relative Potency, Chemotaxis LTB4 [1] | Relative Potency, Chemotaxis fMLP [2] | Chemotaxis LTB4, inactive at the dose tested ([1]; dose not given, 3×10^-8 M LTB4)
1 | 1.0 | – | – | CCCc1c(OCCCOc2ccc(-c3c[nH]cn3)c(OC)c2CCC)ccc2c1OC(C(=O)O)CC2 (centres unmarked) [Example 9] | 0.66 | 0.45 | –
2 | 0.19 | – | – | CCCc1c(OCCCOc2ccc(-c3csc(SC)n3)c(OC)c2CCC)ccc2c1OC(C(=O)O)CC2 (centres unmarked) [Example 28] | 0.05 | – | –
3 | 0.02 | – | – | CCCc1c(OCCCOc2ccc(-c3csc(SCc4ccccc4)n3)c(OC)c2CCC)ccc2c1OC(C(=O)O)CC2 (centres unmarked) [Example 29] | – | – | IA
4 | 2.65 | – | – | CCCc1c(OCCCOc2ccc(-c3c[nH]c(SCc4ccccc4)n3)c(OC)c2CCC)ccc2c1OC(C(=O)O)CC2 (centres unmarked) [Example 8, 3,4-Dihydro-7-[3-[3-methoxy-4-[2-[(phenylmethyl)thio]-1H-imidazol-4-yl]-2-propylphenoxy]propoxy]-8-propyl-2H-1-benzopyran-2-carboxylic acid] | 1.86 | 2.0 | –

Continued, molecule first:

Row | Structure (SMILES) | Relative Potency, LTB4 Receptor Binding (LTB4 Receptor) | IC50 ([1]; Homo sapiens, Neutrophil, value in parentheses, 3×10^-8 M LTB4) | IC50 ([2]; Homo sapiens, Neutrophil, value in parentheses) | Relative Potency, Chemotaxis LTB4 [1] | Relative Potency, Chemotaxis fMLP [2] | Chemotaxis LTB4, inactive at the dose tested ([1]; dose not given, 3×10^-8 M LTB4)
5 | CCCc1c(OCCCOc2ccc(C(C)=O)c(OC)c2CCC)ccc2c1OC(C(=O)O)CC2 (centres unmarked) [Example 1(b), 7-[3-(4-acetyl-3-methoxy-2-propylphenoxy)propoxy]-3,4-dihydro-8-propyl-2H-1-benzopyran-2-carboxylic acid, reference compound] | – | 1.8 µM | 5.4 µM | – | – | –
6 | C=CCc1c(OCCCOc2ccc3c(c2CCC)OC(C(=O)O)CC3)ccc(-c2cscn2)c1OC (centres unmarked) [Example 17, 3,4-dihydro-7-[3-[3-methoxy-2-(2-propenyl)-4-(4-thiazolyl)-phenoxy]propoxy]-8-propyl-2H-1-benzopyran-2-carboxylic acid] | 11.6 | – | – | 8.3 | 1.9 | –
7 | CCCc1c(OCCCOc2ccc(-c3cscn3)c(OC)c2CCC)ccc2c1OC(C(=O)O)CC2 (centres unmarked) [Example 12, 3,4-dihydro-7-[3-[3-methoxy-2-propyl-4-(4-thiazolyl)phenoxy]-propoxy]-8-propyl-2H-1-benzopyran-2-carboxylic acid] | 4.5 | – | – | 3.0 | 1.1 | –
8 | CCCc1c(OCCCOc2ccc(-c3csc(=S)[nH]3)c(OC)c2CCC)ccc2c1OC(C(=O)O)CC2 (centres unmarked) [Example 26, 3,4-Dihydro-7-[3-[4-(2,3-dihydro-2-thioxo-4-thiazolyl)-3-methoxy-2-propylphenoxy]propoxy]-8-propyl-2H-1-benzopyran-2-carboxylic acid] | 0.51 | – | – | – | – | –
9 | CCCc1c(OCCCOc2ccc(-c3csc(OC)n3)c(OC)c2CCC)ccc2c1OC(C(=O)O)CC2 (centres unmarked) [Example 24, 3,4-Dihydro-7-[3-[3-methoxy-4-(2-methoxy-4-thiazolyl)-2-propylphenoxy]propoxy]-8-propyl-2H-1-benzopyran-2-carboxylic acid] | 0.31 | – | – | < 0.23 | – | –
10 | CCCc1c(OCCCOc2ccc(-c3cocn3)c(OC)c2CCC)ccc2c1OC(C(=O)O)CC2 (centres unmarked) [Example 5, 3,4-Dihydro-7-[3-[3-methoxy-4-(4-oxazolyl)-2-propylphenoxy]propoxy]-8-propyl-2H-1-benzopyran-2-carboxylic acid] | 4.0 | – | – | 2.2 | 0.73 | –
11 | CCCc1c(OCCCOc2ccc(-c3coc(C)n3)c(OC)c2CCC)ccc2c1OC(C(=O)O)CC2 (centres unmarked) [Example 14, 3,4-dihydro-7-[3-[3-methoxy-4-(2-methyl-4-oxazolyl)-2-propylphenoxy]propoxy]-8-propyl-2H-1-benzopyran-2-carboxylic acid] | 0.47 | – | – | < 0.1 | – | –
12 | CCCc1c(OCCCOc2ccc(-c3csc(N)n3)c(OC)c2CCC)ccc2c1OC(C(=O)O)CC2 (centres unmarked) [Example 10, 7-[3-[4-(2-amino-4-thiazolyl)3-methoxy-2propylphenoxy]propoxy]3,4-dihydro-8-propyl-2H-1-benzopyran-2-carboxylic acid] | 1.56 | – | – | 0.63 | 1.4 | –
